Results as given in patent publication US20080200538A1, “Inhibition of Monocyte Survival, Differentiation, or Proliferation” (The Ohio State University Research Foundation, priority 2005, published 2008).

Assays:
[1] = system: THP-1 cells; experiment: Cell viability assay (CellTiter 96 / MTT, A490); format: cell-based, human; conditions: THP-1, 50 to 500 μM apigenin, 24 h; reduced to
Description: (§1) FIG. 1. Effect of apigenin and naringenin in cell survival of cancer cells. (A) Structure of the flavonoids apigenin and naringenin. (B) THP-1, U937, A549, and MCF-7 cells were treated with various doses of apigenin or naringenin for 24 h. After the treatment, the percentage of cell proliferation was calculated as the ratio of treated cells to control cells as determined by the MTT method (A490). Data represents means ±SEM (N=9). […] Cells were plated at a density of 2×10^4 cells/well into 96-well plates and treated with flavonoids at indicated concentrations for 24 h. Absorbance at 490 nm (A490) was recorded using an ELISA plate reader (Bio-Tek ELx800, KC Junior, Winooski, Vt.).

[2] = system: U937 cells; experiment: Cell viability assay (CellTiter 96 / MTT, A490); format: cell-based, human; conditions: 24 h, reduced to
Description: as §1

[3] = system: THP-1 cells; experiment: Cell survival and apoptosis by calcein AM/PI staining; format: cell-based, human
Description: (§2) FIG. 2. Apigenin induces cell death in monocytic leukemia cells. THP-1 and U937 leukemia cells were treated for various lengths of time with 50 μM apigenin or left untreated (NT) and stained with calcein AM and PI as described in Material and Methods to evaluate the percentage of cell survival. (A) THP cells after 12 h cells treated with 50 μM apigenin or with DMSO (NT). (B) The percentage of cell survival represented by means ±SEM (N=3).
FIG. 4. Caspase-3 activation is required for apigenin-induced apoptosis. THP-1 cells were treated for 12 h with 50 μM apigenin alone or pretreated with 20 μM DEVD-FMK for 1 h prior to the addition of apigenin. (A) Cells were then stained with calcein AM and 24 PI and the percentage of apoptotic cells was determined. (B) Lysates from cells treated as described above were used to determined caspase-3 activity by the DEVD-AFC assay. All data represents means ±SEM (N=5).
FIG. 7. Apigenin induced p38 activation is not required for apoptosis. A. Cells were pretreated for 1 h prior to addition of 50 μM apigenin or DMSO (−) with 10 or 25 μM concentrations of SB203580 or DMSO (−) for 12 h. The percentage of apoptotic cells was determined by calcein AM with PI stained cells. Data represents means ±SEM (N=5 p>0.05). B. Lysates from the same treatments were used to determined caspase-3 activity by the DEVD-AFC assay. Data represents means ±SEM (N=5 p>0.05).
(§3) To investigate apoptosis, cells were plated at a density of 1×10^6 cells/well. After treatment, cells were collected and washed in PBS. Cells were then incubated in RPMI (no phenol red) and 1 μg/ml calcein AM for 30 min and 5×10−2 ng/ml propidium iodide (PI) for 5 min. Cells were washed twice and resuspended in PBS. Cells were viewed using a fluorescent microscope (Olympus, Melville, N.Y.). At least 200 cells were counted. Cells calcein AM positive (green) in the absence of PI (red) were considered alive while cells undergoing apoptosis are green with red. Number of green cells or green with red cells was counted over total number of cells (green alone and green with red) to express cell survival or apoptotic cell percentage respectively.

[4] = system: U937 cells; experiment: as above; format: cell-based, human; conditions: U937, 50 μM
Description: as §2, §3

[5] = system: caspase-9; experiment: Caspase-9 activity, LEHD-AFC assay, THP-1 lysates; format: cell-based, human; conditions: THP-1, 50 μM apigenin
Description: (§4) FIG. 3. Apigenin induces caspase activation in monocytic leukemia. THP-1 (top) and U937 (bottom) leukemia cells were treated for various lengths of time with 50 μM apigenin or DMSO (NT). (A and C) Caspase-9 activity was determined by the LEHDAFC assay. (B and D) Caspase-3 activity was determined by the DEVD-AFC assay. Data represents means ±SEM (N=3).
(§5) For measurements of caspase activity, cells were plated at a density of 1.5×10^6 cells/well. After treatment, cells extracts were prepared as previously described (Doseff, A. I., Baker J. H., Bourgeois T. A. and Wewers M. D. (2003) Interleukin-4-induced zpoptosis entails caspase activation and suppression of extracellular signal-regulated kinase phosphorylation. Am. J. Resp. Cell Mol. Biol., 29, 367-374). Protein extracts were incubated with 20 μM DEVD-AFC to determine caspase-3 activity or LEHD-AFC to determine caspase-9 activity (Enzyme Systems Products, Livermore, Calif.) in a cytobuffer as previously described (Doseff, A. I., Baker J. H., Bourgeois T. A. and Wewers M. D. (2003) Interleukin-4-induced zpoptosis entails caspase activation and suppression of extracellular signal-regulated kinase phosphorylation. Am. J. Resp. Cell Mol. Biol., 29, 367-374). Levels of released AFC were measured using Cytofluor 400 fluorimeter (Filters: excitation 400 nm, emission 508 nm; Perspective Co., Framingham, Mass.).

[6] = system: caspase-9; experiment: Caspase-9 activity, LEHD-AFC assay, U937 lysates; format: cell-based, human; conditions: U937, 50 μM apigenin; remained high even after 24 h
Description: as §4, §5

[7] = system: p38; experiment: Western blot of p38 phosphorylation in THP-1 cells; format: cell-based, human; conditions: THP-1, 50 μM apigenin, after 3 h
Description: A. THP-1 cells were treated with 50 μM apigenin for various lengths of time. Lysates were separated by SDS-PAGE, transferred and analyzed by immunoblots with anti-phospho-p38 (pp 38) and anti-total-p38 antibodies. B. THP-1 cells were treated for 6 hr with 50 μM apigenin alone (lane 2), treated with the apigenin diluent (lane 1), pretreatred with 10 or 25 μM SB203580 for 1 hr prior to the addition of apigenin (lanes 3 and 4) or with the SB203580 inhibitor alone (lanes 5 and 6).
Extracts from 3×10^6 cells were prepared by incubating cells for 30 min on ice in lysis buffer (50 mM Tris, 10 mM EDTA 0.5% NP-40, 10 mM Na-glycerophosphate, 5 mM Na-pyrophosphate, 50 mM NaF, 1 mM orthovanadate, 1 mM DTT, 0.1 mM PMSF, 2 μg/ml of protease inhibitors: chymostatin, pepstatin, antipain, and leupeptin). Cell lysates were centrifuged (14,000×g for 10 min at 4° C.) and the supernatants were stored for at −70° C. for future analysis. Equal amounts of protein were loaded and separated by SDS-PAGE, transferred onto nitrocellulose membranes and probed with antibodies of interest followed by horseradish peroxidase conjugated secondary antibody and visualized by enhanced chemiluminescence (Amersham, Arlington Heights, Ill.). […]

[8] = system: LPS stimulated monocytes; experiment: Cell death of LPS-treated monocytes (calcein AM/PI); format: cell-based; conditions: monocytes stimulated with LPS, increasing amount of apigenin
Description: as §3
Apigenin induces cell death on LPS-treated monocytes. Monocytes were stained with calcein AM and PI as described in Material and Methods to evaluate the percentage of cell death and survival. Monocytes freshly isolated (Fresh), treated for 16 h with 10 ng/ml LPS alone, left untreated (NT) or (A) treated with different doses of apigenin, (B) with LPS and apigenin, or (C) with LPS 1 h prior to the addition of apigenin. Values represent the means ±SEM (N=#, *P<0.05 compared to LPS alone).

[9] = system: caspase-3; experiment: Caspase-3 activity in LPS-stimulated monocytes (DEVD-AFC); format: cell-based
Description: as §5
Apigenin reactivates caspase-3 on LPS-stimulated monocytes. Caspase-3 activity was determined by the DEVD-AFC assay in monocytes freshly isolated (Fresh) or monocytes cultured for 18 h left untreated, treated with 10 ng/m 1 LPS or (A) with different doses of apigenin alone, (B) with LPS and different doses of apigenin or (C) with LPS 1 h prior to the addition of apigenin. […]

[10] = system: TNFα; experiment: TNFα release by LPS stimulated monocytes; format: cell-based
[11] = system: THP-1 cells; experiment: Reverse-phase HPLC of extracts of treated THP-1 cells (conversion of compound); conditions: extracts of THP-1 cells, data not shown

## O=c1cc(-c2ccc(O)cc2)oc2cc(O)cc(O)c12 [apigenin]
[1]
  cell proliferation (ratio of treated to control cells): approximately 20%
[2]; U937, 50 μM apigenin
  cell proliferation (ratio of treated to control cells): 50%
[2]; U937, higher concentrations of apigenin (above 50 μM)
  cell proliferation (ratio of treated to control cells): 20%
[3]; Homo sapiens, THP-1, 12 h, read-out: cell viability (survival)
  viability at 50 µM: 30%
[3]; THP-1, 50 μM apigenin alone, 12 h
  apoptotic cells: 70%
[3]; THP-1, 50 μM, 9 h, reduced to
  cell survival: 80%
[4]; 12 h
  decrease in cell survival: 10%
[4]; 24 h
  decrease in cell survival: 50%
[5]
  caspase-9 activity, time course: observed after 6 h of treatment with apigenin and remained high after 9 h of treatment, decreasing after 12 h
[6]
  caspase-9 activity, time course: detected at 9 h
[7]
  phosphorylation of p38: increase
[8]
  death of LPS stimulated monocytes: induces the death of such stimulated monocytes in an apigenin-dose dependent manner
[9]
  caspase-3 activation: significantly increases
[10]
  release of TNFα: inhibits
[11]
  conversion to another chemical entity in treated cells: neither one of these two compounds is significantly converted
